Results taken from PMC5418449, “Characterisation of CCT271850, a selective, oral and potent MPS1 inhibitor, used to directly measure in vivo MPS1 inhibition vs therapeutic efficacy” (British Journal of Cancer, 2017).

Assays:
011B = test system: 011B; design: 14-day clonogenic growth inhibition assay, human cancer cell line panel; conditions: 14-day clonogenic assay; inhibitor; read-out: Table S1. IC50 of CCT271850 determined by MTT and clonogenic assays (CA). / All cell lines were tested at least 2 times. / 14-day CA
Experimental: (§1) To evaluate CCT271850 antiproliferation effects in a large panel of human cancer cell lines, 91 cell lines were treated for 72 h and 14 days at different compound concentrations in growth inhibition assays. The growth inhibition values as measured by IC50 are summarised in Table 2 and Supplementary Table S1. […] Cell lines from colon and head and neck cancers were among the most sensitive.

011A = test system: 011A; design: 14-day clonogenic growth inhibition assay, human cancer cell line panel; conditions: 14-day clonogenic assay; inhibitor; read-out: Table S1. IC50 of CCT271850 determined by MTT and clonogenic assays (CA). / All cell lines were tested at least 2 times. / 14-day CA
Experimental: as §1

005B = test system: 005B; design: 14-day clonogenic growth inhibition assay, human cancer cell line panel; conditions: 14-day clonogenic assay; inhibitor; read-out: Table S1. IC50 of CCT271850 determined by MTT and clonogenic assays (CA). / All cell lines were tested at least 2 times. / 14-day CA
Experimental: as §1

EF027 = test system: EF027; design: MTT antiproliferation assay, absorbance at 570 nm, human cancer cell line panel; conditions: 3-day MTT; inhibitor; read-out: Table S1. IC50 of CCT271850 determined by MTT and clonogenic assays (CA). / All cell lines were tested at least 2 times. / 3-day MTT
Experimental: (§2) Cell lines were obtained from the American Type Culture Collection and grown in their recommended culture medium, supplemented with 10% FBS at 37 °C in 5% CO2. In-house authentication of cell lines by SNP profiling was carried out and cultured cells were passaged for less than 6 months before replacement from early-passage frozen stocks. Cells were regularly screened for Mycoplasma, using a PCR-based assay (VenorGem; Minerva Biolabs, Berlin, Germany). Transfections were carried out at ∼80% confluency with the plasmids indicated, using Lipofectamine LTX (15338030, Life Technologies, Carlsbad, CA, USA) according to the manufacturer's instructions. Cell proliferation assays were carried out by colorimetric MTT method (Sigma, St Louis, MO, USA) as described elsewhere ([Mosmann, 1983]). Briefly, cells were plated in 96-well plates at 2000–5000 cells per well (depending on the cell line) followed by treatment with two-fold dilutions of 0–25 μM drug for 72 h. Absorbance was measured at 570 nm with the Wallac VICTOR2 1420 Multilabel Counter (PerkinElmer, Waltham, MA, USA). To evaluate CCT271850 antiproliferation effects in a large panel of human cancer cell lines, 91 cell lines were treated for 72 h and 14 days at different compound concentrations in growth inhibition assays. The growth inhibition values as measured by IC50 are summarised in Table 2 and Supplementary Table S1. […] Cell lines from colon and head and neck cancers were among the most sensitive.

OVCAR3 = test system: OVCAR3; design: MTT antiproliferation assay, absorbance at 570 nm, human cancer cell line panel; conditions: 3-day MTT; inhibitor; read-out: Table S1. IC50 of CCT271850 determined by MTT and clonogenic assays (CA). / All cell lines were tested at least 2 times. / 3-day MTT
Experimental: as §2

PATU-8988S = test system: PATU-8988S; design: MTT antiproliferation assay, absorbance at 570 nm, human cancer cell line panel; conditions: 3-day MTT; inhibitor; read-out: Table S1. IC50 of CCT271850 determined by MTT and clonogenic assays (CA). / All cell lines were tested at least 2 times. / 3-day MTT
Experimental: as §2

SKOV3 = test system: SKOV3; design: MTT antiproliferation assay, absorbance at 570 nm, human cancer cell line panel; conditions: 3-day MTT; inhibitor; read-out: Table S1. IC50 of CCT271850 determined by MTT and clonogenic assays (CA). / All cell lines were tested at least 2 times. / 3-day MTT
Experimental: as §2

Suit-2 = test system: Suit-2; design: MTT antiproliferation assay, absorbance at 570 nm, human cancer cell line panel; conditions: 3-day MTT; inhibitor; read-out: Table S1. IC50 of CCT271850 determined by MTT and clonogenic assays (CA). / All cell lines were tested at least 2 times. / 3-day MTT
Experimental: as §2

Lon-HN5 = test system: Lon-HN5; design: MTT antiproliferation assay, absorbance at 570 nm, human cancer cell line panel; conditions: 3-day MTT; inhibitor; read-out: Table S1. IC50 of CCT271850 determined by MTT and clonogenic assays (CA). / All cell lines were tested at least 2 times. / 3-day MTT
Experimental: as §2

OVCAR4 = test system: OVCAR4; design: MTT antiproliferation assay, absorbance at 570 nm, human cancer cell line panel; conditions: 3-day MTT; inhibitor; read-out: Table S1. IC50 of CCT271850 determined by MTT and clonogenic assays (CA). / All cell lines were tested at least 2 times. / 3-day MTT
Experimental: as §2

PA-1 = test system: PA-1; design: MTT antiproliferation assay, absorbance at 570 nm, human cancer cell line panel; conditions: 3-day MTT; inhibitor; read-out: Table S1. IC50 of CCT271850 determined by MTT and clonogenic assays (CA). / All cell lines were tested at least 2 times. / 3-day MTT
Experimental: as §2

O13 = test system: O13; design: MTT antiproliferation assay, absorbance at 570 nm, human cancer cell line panel; conditions: 3-day MTT; inhibitor; read-out: Table S1. IC50 of CCT271850 determined by MTT and clonogenic assays (CA). / All cell lines were tested at least 2 times. / 3-day MTT
Experimental: as §2

Miapaca-2 = test system: Miapaca-2; design: MTT antiproliferation assay, absorbance at 570 nm, human cancer cell line panel; conditions: 3-day MTT; inhibitor; read-out: Table S1. IC50 of CCT271850 determined by MTT and clonogenic assays (CA). / All cell lines were tested at least 2 times. / 3-day MTT
Experimental: as §2

IGROV1 = test system: IGROV1; design: MTT antiproliferation assay, absorbance at 570 nm, human cancer cell line panel; conditions: 3-day MTT; inhibitor; read-out: Table S1. IC50 of CCT271850 determined by MTT and clonogenic assays (CA). / All cell lines were tested at least 2 times. / 3-day MTT
Experimental: as §2

CAL27 = test system: CAL27; design: MTT antiproliferation assay, absorbance at 570 nm, human cancer cell line panel; conditions: 3-day MTT; inhibitor; read-out: Table S1. IC50 of CCT271850 determined by MTT and clonogenic assays (CA). / All cell lines were tested at least 2 times. / 3-day MTT
Experimental: as §2

Kuramochi = test system: Kuramochi; design: MTT antiproliferation assay, absorbance at 570 nm, human cancer cell line panel; conditions: 3-day MTT; inhibitor; read-out: Table S1. IC50 of CCT271850 determined by MTT and clonogenic assays (CA). / All cell lines were tested at least 2 times. / 3-day MTT
Experimental: as §2

PJ41 = test system: PJ41; design: MTT antiproliferation assay, absorbance at 570 nm, human cancer cell line panel; conditions: 3-day MTT; inhibitor; read-out: Table S1. IC50 of CCT271850 determined by MTT and clonogenic assays (CA). / All cell lines were tested at least 2 times. / 3-day MTT
Experimental: as §2

PATU-8902 = test system: PATU-8902; design: MTT antiproliferation assay, absorbance at 570 nm, human cancer cell line panel; conditions: 3-day MTT; inhibitor; read-out: Table S1. IC50 of CCT271850 determined by MTT and clonogenic assays (CA). / All cell lines were tested at least 2 times. / 3-day MTT
Experimental: as §2

AspC-1 = test system: AspC-1; design: MTT antiproliferation assay, absorbance at 570 nm, human cancer cell line panel; conditions: 3-day MTT; inhibitor; read-out: Table S1. IC50 of CCT271850 determined by MTT and clonogenic assays (CA). / All cell lines were tested at least 2 times. / 3-day MTT
Experimental: as §2

Det562 = test system: Det562; design: MTT antiproliferation assay, absorbance at 570 nm, human cancer cell line panel; conditions: 3-day MTT; inhibitor; read-out: Table S1. IC50 of CCT271850 determined by MTT and clonogenic assays (CA). / All cell lines were tested at least 2 times. / 3-day MTT
Experimental: as §2

TYK-Nu = test system: TYK-Nu; design: MTT antiproliferation assay, absorbance at 570 nm, human cancer cell line panel; conditions: 3-day MTT; inhibitor; read-out: Table S1. IC50 of CCT271850 determined by MTT and clonogenic assays (CA). / All cell lines were tested at least 2 times. / 3-day MTT
Experimental: as §2

RMG1 = test system: RMG1; design: MTT antiproliferation assay, absorbance at 570 nm, human cancer cell line panel; conditions: 3-day MTT; inhibitor; read-out: Table S1. IC50 of CCT271850 determined by MTT and clonogenic assays (CA). / All cell lines were tested at least 2 times. / 3-day MTT
Experimental: as §2

OAW42 = test system: OAW42; design: MTT antiproliferation assay, absorbance at 570 nm, human cancer cell line panel; conditions: 3-day MTT; inhibitor; read-out: Table S1. IC50 of CCT271850 determined by MTT and clonogenic assays (CA). / All cell lines were tested at least 2 times. / 3-day MTT
Experimental: as §2

HN6 = test system: HN6; design: clonogenic colony formation assay, growth inhibition IC50; conditions: 14-day clonogenic; read-out: Table S1. IC50 of CCT271850 determined by MTT and clonogenic assays (CA). / All cell lines were tested at least 2 times. / 14-day CA
Experimental: as §1

- IC50 (OVCAR3): > 100000 nM
- IC50 (SKOV3): > 100000 nM
- IC50 (OVCAR4): 4950 nM
- IC50 (Miapaca-2): 245 nM
- IC50 (AspC-1): 2400 nM
Structure (SMILES): COc1cc(-c2cnn(C)c2)ccc1Nc1ncc2ccnc(N[C@@H](C)C(C)(C)C)c2n1 [34h, CCT271850]
- IC50 (011B): 21 nM
- IC50 (011A): 20 nM
- IC50 (005B): 45 nM
- IC50 (EF027): 787 nM
- IC50 (PATU-8988S): 2020 nM
- IC50 (Suit-2): 435 nM
- IC50 (Lon-HN5): 325 nM
- IC50 (PA-1): 2250 nM
- IC50 (O13): 1260 nM
- IC50 (IGROV1): 3590 nM
- IC50 (CAL27): 227 nM
- IC50 (Kuramochi): 4860 nM
- IC50 (PJ41): 520 nM
- IC50 (PATU-8902): 510 nM
- IC50 (Det562): 1310 nM
- IC50 (TYK-Nu): 990 nM
- IC50 (RMG1): 111 nM
- IC50 (OAW42): 880 nM
- IC50 (HN6): 15000 nM
